Measured values from patent US8865623B2, “Herbicidally active cyclic diones and derivatives thereof, processes for their preparation, compositions, and method of controlling weeds” (Syngenta Limited, priority 2009, dated 2014).

Columns and labels:
Format in all cases: in vivo
[1] = test system: Alopecurus myosuroides (ALOMY); experiment: Post-emergence herbicidal activity, glasshouse pot test; conditions: Alopecurus myosuroides, 312 h, rate 250 g/ha, evaluated after 13 days, glasshouse, read-out: Post-emergence activity ALOMY (100=total damage to plant; 0=no damage to plant)
In short: (§1)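 Glasshouse pots, standard soil; spray at day 1 (pre) or day 8 (post) after sowing; a.i. in acetone/water 50:50 + 0.5% Tween 20, diluted aqueous. 24/16° C, 14 h light, 65% RH. Visual damage at 13 days: 0 = none, 100 = total.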

Lolium perenne (LOLPE) [2] = experiment: as above; conditions: Lolium perenne, 312 h, rate 250 g/ha, evaluated after 13 days, glasshouse, read-out: Post-emergence activity LOLPE (100=total damage to plant; 0=no damage to plant)
In short: as §1

Avena fatua (AVEFA) [3] = experiment: as above; conditions: Avena fatua, 312 h, rate 250 g/ha, evaluated after 13 days, glasshouse, read-out: Post-emergence activity AVEFA (100=total damage to plant; 0=no damage to plant)
In short: as §1

[4] = test system: Echinochloa crus-galli (ECHCG); experiment: as above; conditions: Echinochloa crus-galli, 312 h, rate 250 g/ha, evaluated after 13 days, glasshouse, read-out: Post-emergence activity ECHCG (100=total damage to plant; 0=no damage to plant)
In short: as §1

[5] = test system: Alopecurus myosuroides (ALOMY); experiment: Pre-emergence herbicidal activity, glasshouse pot test; conditions: Alopecurus myosuroides, 312 h; Rate 250 g/ha; pre-emergence spray; evaluated after 13 days; read-out: Pre-emergence activity ALOMY (100=total damage to plant; 0=no damage to plant)
In short: as §1

Lolium perenne (LOLPE) [6] = experiment: as above; conditions: Lolium perenne, 312 h; Rate 250 g/ha; pre-emergence spray; evaluated after 13 days; read-out: Pre-emergence activity LOLPE (100=total damage to plant; 0=no damage to plant)
In short: as §1

Avena fatua (AVEFA) [7] = experiment: as above; conditions: Avena fatua, 312 h; Rate 250 g/ha; pre-emergence spray; evaluated after 13 days; read-out: Pre-emergence activity AVEFA (100=total damage to plant; 0=no damage to plant)
In short: as §1

[8] = test system: Echinochloa crus-galli (ECHCG); experiment: as above; conditions: Echinochloa crus-galli, 312 h; Rate 250 g/ha; pre-emergence spray; evaluated after 13 days; read-out: Pre-emergence activity ECHCG (100=total damage to plant; 0=no damage to plant)
In short: as §1

Compound	pest or weed control at 250 g/ha [1] [%]	pest or weed control at 250 g/ha (Lolium perenne (LOLPE) [2]) [%]	pest or weed control at 250 g/ha (Avena fatua (AVEFA) [3]) [%]	pest or weed control at 250 g/ha [4] [%]	pest or weed control at 250 g/ha [5] [%]	pest or weed control at 250 g/ha (Lolium perenne (LOLPE) [6]) [%]	pest or weed control at 250 g/ha (Avena fatua (AVEFA) [7]) [%]	pest or weed control at 250 g/ha [8] [%]
CCc1ccc(Oc2ncccc2C(F)(F)F)cc1C1=C(O)C(C)(C)OC(C)(C)C1=O [Example A-154]	20	20	10	60	0	10	0	20
CCc1ccc(Oc2cc(F)cc(F)n2)cc1C1=C(O)C(C)(C)OC(C)(C)C1=O [Example A-156]	30	20	20	50	20	20	0	60
CCc1ccc(Oc2ncc(I)cc2Cl)cc1C1=C(O)C(C)(C)OC(C)(C)C1=O [Example A-157]	90	90	100	100	40	50	30	80
CCc1ccc(Oc2ccc3cc(Cl)ccc3n2)cc1C1=C(O)C(C)(C)OC(C)(C)C1=O [Example A-159]	80	100	80	100	30	100	40	90
CCc1ccc(Oc2cnc3ccccc3n2)cc1C1=C(O)C(C)(C)OC(C)(C)C1=O [Example A-161]	100	90	70	100	70	90	50	100
CCc1ccc(Oc2ncc(Cl)cc2[N+](=O)[O-])cc1C1=C(O)C(C)(C)OC(C)(C)C1=O [Example A-162]	80	70	50	90	30	50	10	60
CCc1ccc(Oc2ccc(I)cn2)cc1C1=C(O)C(C)(C)OC(C)(C)C1=O [Example A-163]	90	100	90	100	70	100	70	100
CCc1ccc(Oc2c(F)cc(C#N)cc2F)cc1C1=C(O)C(C)(C)OC(C)(C)C1=O [Example A-166]	30	20	20	60	20	10	20	40
CCc1ccc(Oc2nc(F)c(F)cc2F)cc1C1=C(O)C(C)(C)OC(C)(C)C1=O [Example A-167]	60	50	40	100	30	30	10	100
